We go through three compounds from ChEMBL document CHEMBL4138090, “4-Phenyl quinoline derivatives as potential serotonin receptor ligands with antiproliferative activity” (Eur J Med Chem, 2017).

Active and inactive are the calls of the source. The calls are words filed in the database; no cut-off is given here. Where only a bound is given, the exact number is not on record here.

The term inhibition denotes the relative decrease from the control value, in per cent. A word on the IC50: it is the point on the concentration scale where inhibition reaches its midpoint. Low readings indicate greater potency in that assay, high ones weaker potency in that assay.

In series [1] the target is 5-hydroxytryptamine receptor 2A (Homo sapiens) (UniProt P28223). In words: Antagonist activity at 5-HT2A receptor in human MCF7 cells assessed as inhibition of serotonin-induced calcium flux at 5 uM measured at 5 secs time interval for 2 mins by Fluo-4AM dye based fluorescence microscopic analysis. The format is functional, cell-based.
5-hydroxytryptamine receptor 2A (Homo sapiens), sequence (P28223 whole entry): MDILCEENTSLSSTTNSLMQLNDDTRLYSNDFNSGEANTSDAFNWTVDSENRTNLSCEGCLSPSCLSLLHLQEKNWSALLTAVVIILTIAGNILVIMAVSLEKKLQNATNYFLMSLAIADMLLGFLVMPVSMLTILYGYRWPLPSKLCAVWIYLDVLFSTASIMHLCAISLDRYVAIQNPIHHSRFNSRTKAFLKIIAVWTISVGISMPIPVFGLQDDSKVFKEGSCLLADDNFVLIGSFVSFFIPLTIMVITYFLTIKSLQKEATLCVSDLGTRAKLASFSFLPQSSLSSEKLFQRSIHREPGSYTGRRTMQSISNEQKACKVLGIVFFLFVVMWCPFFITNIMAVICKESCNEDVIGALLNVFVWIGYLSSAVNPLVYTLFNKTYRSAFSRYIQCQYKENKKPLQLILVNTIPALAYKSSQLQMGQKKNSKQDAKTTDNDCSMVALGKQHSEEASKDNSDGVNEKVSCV
Series [2] in a line: Cytotoxicity against HEK293 cells assessed as reduction in cell viability after 72 hrs by MTT assay. The format is cell-based. As to conditions: human, read-out: LD50. In general terms: Tetrazolium assays rely on reduction of a dye to a coloured formazan, in cell work by metabolically active cells.
In series [3] the test system is MCF7. The series can be described thus: Antiproliferative activity against human MCF7 cells after 72 hrs by MTT assay. The format is functional, cell-based. The note with it: MCF7, 72 h.
In series [4] the test system is MCF7. The series can be described thus: Antiproliferative activity against human MCF7 cells at 5 uM after 72 hrs by MTT assay. The format is functional, cell-based.
Series [5] deals with MCF7. The series can be described thus: Antiproliferative activity against human MCF7 cells at 5 uM after 72 hrs in presence of serotonin by MTT assay. The format is functional, cell-based.
The target of series [6] is 5-hydroxytryptamine receptor 2A (Homo sapiens) (UniProt P28223). In words: Antagonist activity at 5-HT2A receptor in human MCF7 cells assessed as reduction in ERK1/2 phosphorylation at 5 uM after 24 to 48 hrs by Western blot analysis relative to control. The format is functional, cell-based.
The subject of series [7] is MCF7. In words: Cell cycle arrest in human MCF7 cells assessed as accumulation at sub-G0/G1 phase after 48 hrs by propidium iodide staining based flow cytometry. The format is functional. A general note: Flow cytometry measures light scatter and fluorescence of single cells or particles in a stream.
For series [8], the system named is MCF7. The series can be described thus: Cell cycle arrest in human MCF7 cells assessed as accumulation at G2/M phase after 48 hrs by propidium iodide staining based flow cytometry. The format is functional.
The subject of series [9] is MCF7. The series can be described thus: Induction of morphological changes in human MCF7 cells assessed as loss in cellular integrity at 5 uM after 72 hrs. The format is functional, cell-based.
In series [10] the test system is MCF7. The series can be described thus: Induction of apoptosis in human MCF7 cells assessed as early apoptotic cells at 5 uM after 48 hrs by Annexin V-FITC/propidium iodide staining based flow cytometry. The format is functional, cell-based.
Series [11] concerns MCF7. The series can be described thus: Induction of apoptosis in human MCF7 cells at 5 uM after 48 hrs by Annexin V-FITC/propidium iodide staining based flow cytometry. The format is functional, cell-based.
The subject of series [12] is MCF7. In words: Cell cycle arrest in human MCF7 cells assessed as accumulation at G1/S phase after 48 hrs by propidium iodide staining based flow cytometry. The format is functional.
In series [13] the test system is MCF7. The series can be described thus: Induction of morphological changes in human MCF7 cells assessed as cell detachment at 5 uM after 72 hrs. The format is functional, cell-based.

As for `Cc1c(N2CCN(C)CC2)nc2ccccc2c1-c1ccccc1`, in series [1], the inhibition result was “Active”.

Turning to `CCN1CCN(c2nc3ccccc3c(-c3ccccc3)c2-c2ccccc2)CC1`, the inhibition result in series [1] is “Active”. Also, the CC50 at 72 h in series [2] was above 24 µM. In the series with MCF7 [3], this compound had an IC50 of 7.48 µM. Also, the outcome with MCF7 [4] was Active. Besides, in the series on MCF7 [5], the outcome was inactive.

Consider `CCN1CCN(c2nc3ccccc3c(-c3ccccc3)c2C)CC1`, for which the inhibition result in series [1] is “Active”. In addition, the inhibition in series [6] is above 50%. Moreover, the result with MCF7 [7], with MCF7 [4], in the series with MCF7 [9], with MCF7 [10], in the series on MCF7 [11] and in the series with MCF7 [13] was Active. Further, the CC50 at 72 h in [2] is above 24 µM. In the series on MCF7 [3], this compound had an IC50 of 6.15 µM. The result in the series with MCF7 [8], in the series on MCF7 [5] and in the series with MCF7 [12] was inactive.
